According to ChEMBL document CHEMBL1201862, “PubChem BioAssay data set” (2004):
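All cell lines were grown in 96-well plates and treated with compound for 48 hours. Here, GI50 denotes the concentration required for 50% inhibition of growth.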 Calls of active or inactive are those of the source. Rule as the data show it: active = GI50 up to about 1.1 µM and inactive = higher.

Tests used:
Experiment in all cases: NCI tumour cell line growth inhibition, 48 h
A498 = system: A498
A549 = system: A549
ACHN = system: ACHN
COLO 205 = system: COLO 205
DU-145 = system: DU-145
HCT-15 = system: HCT-15
HOP-62 = system: HOP-62
IGROV-1 = system: IGROV-1
MDA-MB-231 = system: MDA-MB-231
NCI-H226 = system: NCI-H226
NCI-H460 = system: NCI-H460
OVCAR-4 = system: OVCAR-4
OVCAR-8 = system: OVCAR-8
RXF 393 = system: RXF 393
SK-MEL-28 = system: SK-MEL-28
SK-MEL-5 = system: SK-MEL-5
SN12C = system: SN12C
T47D = system: T47D
UACC-257 = system: UACC-257
UO-31 = system: UO-31

`O=c1[nH]c2cc([N+](=O)[O-])c(Nc3c4ccccc4nc4ccccc34)c([N+](=O)[O-])c2[nH]1` was tested, and the GI50 (A498) was 2.08 µM (inactive), the GI50 (A549) was 2.69 µM (inactive) and the GI50 (ACHN) was 1.98 µM (inactive). The GI50 (COLO 205) was 2.1 µM (inactive), the GI50 (DU-145) was 2.29 µM (inactive) and the GI50 (HCT-15) was 2.58 µM. For the same compound, the GI50 (HOP-62) was 2.67 µM (inactive), the GI50 (IGROV-1) was 0.238 µM (active) and the GI50 (MDA-MB-231) was 3.21 µM (inactive). The GI50 (NCI-H226) was 3.13 µM (inactive), the GI50 (NCI-H460) was 2.36 µM (inactive) and the GI50 (OVCAR-4) was 3.07 µM (inactive). The GI50 (OVCAR-8) was 2.43 µM (inactive), the GI50 (RXF 393) was 2.42 µM (inactive) and the GI50 (SK-MEL-28) was 3.27 µM (inactive). The GI50 (SK-MEL-5) was 2.45 µM (inactive), the GI50 (SN12C) was 2.17 µM (inactive) and the GI50 (T47D) was 2.49 µM (inactive). The GI50 (UACC-257) was 4.03 µM (inactive) and the GI50 (UO-31) was 2.09 µM (inactive).
With `S=c1nc(N/N=C/c2cccs2)c2cn[nH]c2[nH]1` the GI50 (A498) was 4.02 µM (inactive), the GI50 (A549) was 0.238 µM (active) and the GI50 (ACHN) was 26.8 µM (inactive). For the same compound, the GI50 (COLO 205) was 6.87 µM (inactive), the GI50 (DU-145) was 34.8 µM (inactive) and the GI50 (HCT-15) was 19.5 µM. The GI50 (HOP-62) was 23.2 µM (inactive), the GI50 (IGROV-1) was 20.2 µM (inactive) and the GI50 (MDA-MB-231) was 28.1 µM (inactive). The GI50 (NCI-H226) was 92 µM (inactive), the GI50 (NCI-H460) was 0.134 µM (active) and the GI50 (OVCAR-4) was 31.5 µM (inactive). For the same compound, the GI50 (OVCAR-8) was 25.6 µM (inactive), the GI50 (RXF 393) was 16.1 µM (inactive) and the GI50 (SK-MEL-28) was 46.7 µM (inactive). The GI50 (SK-MEL-5) was 31.1 µM (inactive), the GI50 (SN12C) was 32.3 µM (inactive) and the GI50 (T47D) was 23.7 µM (inactive). For the same compound, the GI50 (UACC-257) was 35.7 µM (inactive) and the GI50 (UO-31) was > 100 µM (inactive).
For `CC(=N\c1ccncc1)/C(C)=N/c1ccncc1`, the GI50 (A498) was 34.4 µM (inactive), the GI50 (A549) was > 100 µM (inactive) and the GI50 (ACHN) was 14.5 µM (inactive). For the same compound, the GI50 (COLO 205) was 17 µM (inactive), the GI50 (DU-145) was 53.6 µM (inactive) and the GI50 (HCT-15) was 14.4 µM. The GI50 (HOP-62) was 18.5 µM (inactive), the GI50 (IGROV-1) was 17.3 µM (inactive) and the GI50 (MDA-MB-231) was 21.8 µM (inactive). For the same compound, the GI50 (NCI-H226) was 34 µM (inactive), the GI50 (NCI-H460) was 96.6 µM (inactive) and the GI50 (OVCAR-4) was 11.4 µM (inactive). The GI50 (OVCAR-8) was 35.2 µM (inactive), the GI50 (RXF 393) was 27.4 µM (inactive) and the GI50 (SK-MEL-28) was 29.1 µM (inactive). For the same compound, the GI50 (SK-MEL-5) was 19.5 µM (inactive), the GI50 (SN12C) was 16.2 µM (inactive) and the GI50 (T47D) was 26.2 µM (inactive). The GI50 (UACC-257) was 36.3 µM (inactive) and the GI50 (UO-31) was 17 µM (inactive).
